# In ChEMBL document CHEMBL5252509, “In depth analysis of kinase cross screening data to identify chemical starting points for inhibition of the Nek family of kinases” (Medchemcomm, 2018):
# Values joined by “and” are separate entries in the source; they are usually repeats but may differ in a detail not shown here. Identical values can stand only once.
# What was measured:
# [1] = target: T1, Serine/threonine-protein kinase Nek5 (Homo sapiens) (UniProt Q6P3R8); assay: Inhibition of NEK5 (unknown origin) at 1 uM relative to control
# T1 sequence (whole entry): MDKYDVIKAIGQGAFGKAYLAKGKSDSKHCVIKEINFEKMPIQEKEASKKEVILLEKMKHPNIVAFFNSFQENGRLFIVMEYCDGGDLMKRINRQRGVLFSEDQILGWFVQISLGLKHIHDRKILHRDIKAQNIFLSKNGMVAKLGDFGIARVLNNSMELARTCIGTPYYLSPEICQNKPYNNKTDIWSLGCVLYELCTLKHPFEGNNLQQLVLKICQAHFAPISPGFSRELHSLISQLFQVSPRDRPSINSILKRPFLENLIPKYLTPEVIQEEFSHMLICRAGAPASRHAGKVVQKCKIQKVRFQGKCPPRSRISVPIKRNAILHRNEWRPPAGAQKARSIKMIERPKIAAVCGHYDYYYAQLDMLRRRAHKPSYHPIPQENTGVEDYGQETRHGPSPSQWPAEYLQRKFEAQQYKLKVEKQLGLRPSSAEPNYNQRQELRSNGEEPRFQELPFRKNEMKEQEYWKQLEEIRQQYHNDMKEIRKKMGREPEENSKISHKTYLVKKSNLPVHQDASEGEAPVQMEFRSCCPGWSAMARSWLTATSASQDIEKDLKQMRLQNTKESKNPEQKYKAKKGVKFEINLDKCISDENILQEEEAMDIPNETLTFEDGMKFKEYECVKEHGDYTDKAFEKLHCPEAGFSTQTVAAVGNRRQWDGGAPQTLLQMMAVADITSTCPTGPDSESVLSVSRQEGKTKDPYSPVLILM
# [2] = target: T2, Serine/threonine-protein kinase Nek9 (Homo sapiens) (UniProt Q8TD19); assay: Inhibition of NEK9 (unknown origin) at 1 uM relative to control
# T2 sequence (whole entry): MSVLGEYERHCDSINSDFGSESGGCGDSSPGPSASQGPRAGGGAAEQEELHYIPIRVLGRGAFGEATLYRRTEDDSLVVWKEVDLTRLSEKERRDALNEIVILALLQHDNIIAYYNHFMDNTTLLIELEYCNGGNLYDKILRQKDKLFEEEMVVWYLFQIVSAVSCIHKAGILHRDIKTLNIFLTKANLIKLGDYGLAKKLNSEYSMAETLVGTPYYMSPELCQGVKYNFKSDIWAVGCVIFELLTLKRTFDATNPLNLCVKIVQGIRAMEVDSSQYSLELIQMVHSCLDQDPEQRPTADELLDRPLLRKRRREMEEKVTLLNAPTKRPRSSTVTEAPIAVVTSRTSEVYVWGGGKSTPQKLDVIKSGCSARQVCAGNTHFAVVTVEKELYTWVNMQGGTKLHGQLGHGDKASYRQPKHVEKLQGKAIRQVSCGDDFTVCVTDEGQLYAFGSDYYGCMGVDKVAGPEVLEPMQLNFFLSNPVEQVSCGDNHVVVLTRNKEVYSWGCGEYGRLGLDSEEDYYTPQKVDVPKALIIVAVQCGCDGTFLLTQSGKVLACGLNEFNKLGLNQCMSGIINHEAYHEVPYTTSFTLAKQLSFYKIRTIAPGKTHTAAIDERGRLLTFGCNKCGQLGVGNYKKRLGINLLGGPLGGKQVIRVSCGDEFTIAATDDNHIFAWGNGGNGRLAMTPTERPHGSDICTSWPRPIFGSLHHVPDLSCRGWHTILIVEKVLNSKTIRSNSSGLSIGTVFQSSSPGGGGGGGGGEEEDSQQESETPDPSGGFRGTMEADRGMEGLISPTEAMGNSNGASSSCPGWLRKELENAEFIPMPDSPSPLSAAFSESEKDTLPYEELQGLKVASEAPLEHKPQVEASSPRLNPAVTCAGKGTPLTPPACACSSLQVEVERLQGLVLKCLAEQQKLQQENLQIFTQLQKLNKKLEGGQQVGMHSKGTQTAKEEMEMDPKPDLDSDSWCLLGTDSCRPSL
# [3] = target: T3, Serine/threonine-protein kinase Nek11 (Homo sapiens) (UniProt Q8NG66); assay: Inhibition of NEK11 (unknown origin) at 1 uM relative to control
# T3 sequence (whole entry): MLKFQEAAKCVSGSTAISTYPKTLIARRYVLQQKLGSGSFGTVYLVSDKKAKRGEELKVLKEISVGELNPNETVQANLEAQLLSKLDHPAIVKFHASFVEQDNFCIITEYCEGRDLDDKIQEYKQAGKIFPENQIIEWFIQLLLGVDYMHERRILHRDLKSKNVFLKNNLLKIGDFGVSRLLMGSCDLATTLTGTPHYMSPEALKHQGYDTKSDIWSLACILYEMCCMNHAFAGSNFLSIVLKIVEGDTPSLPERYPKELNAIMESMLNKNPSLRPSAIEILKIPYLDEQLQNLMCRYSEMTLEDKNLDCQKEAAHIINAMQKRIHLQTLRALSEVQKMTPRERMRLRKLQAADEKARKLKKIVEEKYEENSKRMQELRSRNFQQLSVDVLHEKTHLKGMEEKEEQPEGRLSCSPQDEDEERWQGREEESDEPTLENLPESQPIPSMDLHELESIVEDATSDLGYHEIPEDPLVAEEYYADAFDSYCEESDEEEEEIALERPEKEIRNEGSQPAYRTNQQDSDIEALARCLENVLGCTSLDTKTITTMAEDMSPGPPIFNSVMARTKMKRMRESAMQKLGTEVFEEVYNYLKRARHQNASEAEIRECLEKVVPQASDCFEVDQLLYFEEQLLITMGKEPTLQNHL
# [4] = target: T4, Serine/threonine-protein kinase Nek2 (Homo sapiens) (UniProt P51955); assay: Inhibition of NEK2 (unknown origin) at 1 uM relative to control
# T4 sequence (whole entry): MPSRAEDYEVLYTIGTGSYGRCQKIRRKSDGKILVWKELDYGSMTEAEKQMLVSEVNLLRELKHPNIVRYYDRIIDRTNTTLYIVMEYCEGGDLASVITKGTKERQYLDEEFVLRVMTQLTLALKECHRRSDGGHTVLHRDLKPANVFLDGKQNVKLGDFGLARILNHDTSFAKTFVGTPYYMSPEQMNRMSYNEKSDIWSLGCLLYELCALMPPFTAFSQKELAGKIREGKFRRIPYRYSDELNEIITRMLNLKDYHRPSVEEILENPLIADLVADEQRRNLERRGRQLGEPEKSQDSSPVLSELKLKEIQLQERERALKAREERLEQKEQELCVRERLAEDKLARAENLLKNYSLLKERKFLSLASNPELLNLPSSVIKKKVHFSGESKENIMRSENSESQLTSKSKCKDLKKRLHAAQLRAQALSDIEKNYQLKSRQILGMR
# [5] = target: Serine/threonine-protein kinase Nek6 (Homo sapiens) (UniProt Q9HC98); assay: Inhibition of NEK6 (unknown origin) at 1 uM relative to control
# [6] = target: Serine/threonine-protein kinase Nek7 (Homo sapiens) (UniProt Q8TDX7); assay: Inhibition of NEK7 (unknown origin) at 1 uM relative to control
# Chain of Serine/threonine-protein kinase Nek7 (Homo sapiens) (Q8TDX7 whole entry, looked up): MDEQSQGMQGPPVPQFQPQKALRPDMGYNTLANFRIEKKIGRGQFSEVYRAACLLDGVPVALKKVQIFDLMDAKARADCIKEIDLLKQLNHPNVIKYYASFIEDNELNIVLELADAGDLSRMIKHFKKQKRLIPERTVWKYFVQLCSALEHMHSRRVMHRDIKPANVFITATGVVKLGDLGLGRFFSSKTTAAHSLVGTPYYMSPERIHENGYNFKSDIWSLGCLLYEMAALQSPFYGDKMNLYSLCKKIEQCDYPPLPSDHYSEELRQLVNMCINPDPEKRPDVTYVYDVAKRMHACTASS
# Chain of Serine/threonine-protein kinase Nek6 (Homo sapiens) (Q9HC98 whole entry): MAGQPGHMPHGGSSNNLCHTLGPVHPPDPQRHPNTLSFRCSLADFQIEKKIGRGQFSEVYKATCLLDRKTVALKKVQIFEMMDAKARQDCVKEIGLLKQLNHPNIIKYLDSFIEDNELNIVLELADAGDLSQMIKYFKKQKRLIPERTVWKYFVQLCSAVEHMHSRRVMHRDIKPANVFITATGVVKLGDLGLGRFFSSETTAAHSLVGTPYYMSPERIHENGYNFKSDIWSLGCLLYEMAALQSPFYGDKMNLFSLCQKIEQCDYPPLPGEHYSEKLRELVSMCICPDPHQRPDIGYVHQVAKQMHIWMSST
SMILES,inhibition [1],inhibition [3] [%],inhibition [4] [%],inhibition [5] [%],inhibition [6] [%],inhibition [2] [%]
Cn1cc(-c2ccc3c(c2)CCN3C(=O)Cc2cc(F)cc(F)c2F)c2c(N)ncnc21,8%,38,84,18,0,8
Nc1nccc2scc(-c3ccc4c(c3)CCN4C(=O)Cc3ccccc3)c12,14%,0,4,0,0,18
COc1cc(Nc2ncc3c(C)nc(-c4cc5ccccc5[nH]4)n3n2)cc(OC)c1OC,93.1% and 99%,86,70,70,70,70
c1ccc(-c2ccnc3[nH]ccc23)cc1,8%,0,74,0,0,0
Cn1cc(-c2ccc3c(c2)CCN3C(=O)Cc2cccc(Cl)c2)c2c(N)ncnc21,32%,0,66,11,0,18

# Further lines, with some results ahead:
inhibition [1],inhibition [3] [%],inhibition [4] [%],inhibition [5] [%],inhibition [6] [%],SMILES,inhibition [2] [%]
0%,14,6.7,6.3,7.4,CC(C)Oc1ccc2c(-c3ccnc(Nc4ccc(N5CCN(C)CC5)cc4)n3)cnn2n1,7.1
31%,0,16,0,20,O=S(=O)(c1ccc(-c2ccnc3[nH]ccc23)cc1)N1CCCC1,28
